These results are taken from patent publication US9085555B2, “Complement pathway modulators and uses thereof” (priority 2011, dated 2015).

In this experiment the target is Factor D (Homo sapiens (Human), UniProt P00746). The experiment is described as follows: biochemical. The class given is biochemical. The settings on record: read-out: IC50.

The structures appear in SMILES notation.

Sequence of Factor D (P00746 26-253): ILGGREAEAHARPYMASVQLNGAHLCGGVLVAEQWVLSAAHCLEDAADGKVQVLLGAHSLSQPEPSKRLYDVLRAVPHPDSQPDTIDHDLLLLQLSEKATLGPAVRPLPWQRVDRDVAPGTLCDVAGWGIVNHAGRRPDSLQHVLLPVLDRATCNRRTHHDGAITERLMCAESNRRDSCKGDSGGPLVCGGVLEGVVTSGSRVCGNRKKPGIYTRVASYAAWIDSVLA

In general, IC50 refers to the concentration at which inhibition is half-maximal. Turning to `NC(=O)n1cc(NC(=O)N2N=CCC2C(=O)NCc2cccc(Cl)c2)c2ccccc21` (stereo not shown) [Example 361, 4,5-Dihydro-pyrazole-1,5-dicarboxylic acid 1-[(1-carbamoyl-1H-indol-3-yl)-amide]5-(3-chloro-benzylamide)], the IC50 was 25 nM.
Under `O=C(Nc1cccc(OC(F)(F)F)c1)[C@@H]1CCCN1C(=O)Nc1cn(C(=O)CO)c2ccccc12` [Example 366, (S)-Pyrrolidine-1,2-dicarboxylic acid 1-{[1-(2-hydroxy-acetyl)-1H-indol-3-yl]-amide}2-[(3-trifluoromethoxy-phenyl)-amide]] stands 3250 nM.
The same measure for `CC(=O)n1cc(NC(=O)N2CCC[C@H]2C(=O)Nc2cccc(OC(F)(F)F)c2)c2ccc(C#N)cc21` [Example 367, (S)-Pyrrolidine-1,2-dicarboxylic acid 1-[(1-acetyl-6-cyano-1H-indol-3-yl)-amide]2-[(3-trifluoromethoxy-phenyl)-amide]]: 7950 nM; for `CC(=O)n1cc(NC(=O)N2C[C@H](F)C[C@H]2C(=O)NCc2cccc(Cl)c2F)c2ccc(OC(F)F)cc21` [Example 368, 2S,4R)-4-Fluoro-pyrrolidine-1,2-dicarboxylic acid 1-[(1-acetyl-6-difluoromethoxy-1H-indol-3-yl)-amide]2-(3-chloro-2-fluoro-benzylamide]: 66 nM.
The same measure for `NC(=O)n1cc(NC(=O)N2CCC[C@H]2C(=O)Nc2cccc(OC(F)(F)F)c2)c2ccc(O)cc21` [Example 369, (S)-Pyrrolidine-1,2-dicarboxylic acid 1-[(1-carbamoyl-6-hydroxy-1H-indol-3-yl)-amide]2-[(3-trifluoromethoxy-phenyl)-amide]]: 850 nM; for `NC(=O)n1cc(NC(=O)N2CCC[C@H]2C(=O)Nc2cccc(OC(F)(F)F)c2)c2cc(O)ccc21` [Example 370, (S)-Pyrrolidine-1,2-dicarboxylic acid 1-[(1-carbamoyl-5-hydroxy-1H-indol-3-yl)-amide]2-[(3-trifluoromethoxy-phenyl)-amide]]: 95 nM; for `NC(=O)n1cc(NC(=O)N2[C@@H]3C[C@@H]3C[C@H]2C(=O)NCc2cccc(Cl)c2F)c2cc(O)ccc21` [Example 371, (1R,3S,5R)-2-aza-bicyclo[3.1.0]hexane-2,3-dicarboxylic acid 2-[(1-carbamoyl-5-hydroxy-1H-indol-3-yl)-amide]3-(3-chloro-2-fluoro-benzylamide)]: 3 nM.
For the compound `NC(=O)n1cc(NC(=O)N2[C@@H]3C[C@@H]3C[C@H]2C(=O)NCc2ccccc2F)c2cc(O)ccc21` [Example 372, (1R,3S,5R)-2-Aza-bicyclo[3.1.0]hexane-2,3-dicarboxylic acid 2-[(1-carbamoyl-5-hydroxy-1H-indol-3-yl)-amide]3-(2-fluoro-benzylamide)], the 50% inhibitory concentration (IC50) came to 45 nM.
Under `N#CCOc1ccc2c(c1)c(NC(=O)N1[C@@H]3C[C@@H]3C[C@H]1C(=O)NCc1cccc(Cl)c1F)cn2C(N)=O` [Example 373, 1R,3S,5R)-2-Aza-bicyclo[3.1.0]hexane-2,3-dicarboxylic acid 2-[(1-carbamoyl-5-cyanomethoxy-1H-indol-3-yl)-amide]3-(3-chloro-2-fluoro-benzylamide] stands 1 nM; under `NC(=O)n1cc(NC(=O)N2[C@@H]3C[C@@H]3C[C@H]2C(=O)NCc2cccc(Cl)c2F)c2cc(OCC(=O)O)ccc21` [Example 374, (1-Carbamoyl-3-{[(1R,3S,5R)-3-(3-chloro-2-fluoro-benzylcarbamoyl)-2-aza-bicyclo[3.1.0]hexane-2-carbonyl]-amino}-1H-indol-5-yloxy)-acetic acid], 3 nM; under `C[C@@]1(F)C[C@@H](C(=O)NCc2cccc(Cl)c2F)N(C(=O)Nc2cn(C(N)=O)c3ccc(OCC(=O)O)cc23)C1` [Example 375, (1-Carbamoyl-3-{[(2S,4R)-2-(3-chloro-2-fluoro-benzylcarbamoyl)-4-fluoro-4-methyl-pyrrolidine-1-carbonyl]-amino}-1H-indol-5-yloxy)-acetic acid], 2 nM.
Under `NC(=O)n1cc(NC(=O)N2[C@@H]3C[C@@H]3C[C@H]2C(=O)NCc2cccc(Cl)c2F)c2ccc(OCC(=O)O)cc21` [Example 376, (1-Carbamoyl-3-{[(1R,3S,5R)-3-(3-chloro-2-fluoro-benzylcarbamoyl)-2-aza-bicyclo[3.1.0]hexane-2-carbonyl]-amino}-1H-indol-6-yloxy)-acetic acid] stands 247 nM; under `NC(=O)n1cc(NC(=O)N2[C@@H]3C[C@@H]3C[C@H]2C(=O)NCc2cccc(Cl)c2F)c2cc(CC(=O)O)ccc21` [Example 377, (1-Carbamoyl-3-{[(1R,3S,5R)-3-(3-chloro-2-fluoro-benzylcarbamoyl)-2-aza-bicyclo[3.1.0]hexane-2-carbonyl]-amino}-1H-indol-5-yl)-acetic acid], 20 nM; under `NC(=O)n1cc(NC(=O)N2[C@@H]3C[C@@H]3C[C@H]2C(=O)NCc2cccc(Cl)c2F)c2ccc(CC(=O)O)cc21` [Example 378, (1-Carbamoyl-3-{[(1R,3S,5R)-3-(3-chloro-2-fluoro-benzylcarbamoyl)-2-aza-bicyclo[3.1.0]hexane-2-carbonyl]-amino}-1H-indol-6-yl)-acetic acid], 24 nM.
The same measure for `NC(=O)n1cc(NC(=O)N2[C@@H]3C[C@@H]3C[C@H]2C(=O)NCc2cccc(Cl)c2F)c2cc(OCCO)ccc21` [Example 379, (1R,3S,5R)-2-aza-bicyclo[3.1.0]hexane-2,3-dicarboxylic acid 2-{[1-carbamoyl-5-(2-hydroxy-ethoxy)-1H-indol-3-yl]-amide}3-(3-chloro-2-fluoro-benzylamide)]: 5 nM; for `NC(=O)n1cc(NC(=O)N2CCS[C@H]2C(=O)NCc2cccc(Cl)c2F)c2cc(OCCO)ccc21` [Example 380, S)-Thiazolidine-2,3-dicarboxylic acid 3-{[1-carbamoyl-5-(2-hydroxy-ethoxy)-1H-indol-3-yl]-amide}2-(3-chloro-2-fluoro-benzylamide]: 17 nM; for `NC(=O)n1cc(NC(=O)N2[C@@H]3C[C@@H]3C[C@H]2C(=O)Nc2cccc(OC(F)(F)F)c2)c2cc(OCCO)ccc21` [Example 381, (1R,3S,5R)-2-Aza-bicyclo[3.1.0]hexane-2,3-dicarboxylic acid 2-{[1-carbamoyl-5-(2-hydroxy-ethoxy)-1H-indol-3-yl]-amide}3-[(3-trifluoromethoxy-phenyl)-amide]]: 57 nM.
Take `C[C@@]1(F)C[C@@H](C(=O)NCc2cccc(Cl)c2F)N(C(=O)Nc2cn(C(N)=O)c3ccc(OCCO)cc23)C1` [Example 383, 2S,4R)-4-Fluoro-4-methyl-pyrrolidine-1,2-dicarboxylic acid 1-{[1-carbamoyl-5-(2-hydroxy-ethoxy)-1H-indol-3-yl]-amide}2-(3-chloro-2-fluoro-benzylamide]: the half-inhibitory concentration (IC50) came out at 4 nM.
Under `NC(=O)n1cc(NC(=O)N2[C@@H]3C[C@@H]3C[C@H]2C(=O)NCc2cccc(Cl)c2F)c2ccc(CCO)cc21` [Example 384, 1R,3S,5R)-2-Aza-bicyclo[3.1.0]hexane-2,3-dicarboxylic acid 2-{[1-carbamoyl-6-(2-hydroxy-ethyl)-1H-indol-3-yl]-amide}3-(3-chloro-2-fluoro-benzylamide] stands 32 nM.
